Test results published in patent US20070043076A1, “Substituted 2-arylmethylene-n-aryl-n'aryl-malonamides and analogs as activators of caspases and inducers of apoptosis” (priority 2003, published 2007).
Like-named read-outs stand apart in the source and are kept apart here.

Experiments:
ZR-75-1 = test: Caspase cascade activation (Ac-DEVD-R110 fluorogenic substrate) in ZR-75-1 cells; format: cell-based, Human; conditions: 24 h incubation; for Caspase Activity Ratio: ratio of net RFU to that of control samples; for EC50: 0.16 to 10 μM final, read-out: Caspase potency EC50
Method: (§1) Human breast cancer cell lines T-47D and ZR-75-1 were grown according to media component mixtures designated by American Type Culture Collection +10% FCS (Invitrogen Corporation), in a 5% CO2-95% humidity incubator at 37° C. T-47D and ZR-75-1 cells were maintained at a cell density between 30 and 80% confluency and for HL-60 at a cell density of 0.1 to 0.6×10^6 cells/mL. Cells were harvested at 600×g and resuspended at 0.65×10^6 cells/mL into appropriate media +10% FCS. An aliquot of 45 μL of cells was added to a well of a 96-well microtiter plate containing 5 μL of a 10% DMSO in RPMI-1640 media solution containing 1.6 to 100 μM of N,N′-bis-(3-trifluoromethyl-phenyl)-2-(4-isopropyl-benzylidene)-malonamide or other test compound (0.16 to 10 μM final). An aliquot of 45 μL of cells was added to a well of a 96-well microtiter plate containing 5 μL of a 10% DMSO in RPMI-1640 media solution without test compound as the control sample. The samples were mixed by agitation and then incubated at 37° C. for 24 h in a 5% CO2-95% humidity incubator. After incubation, the samples were removed from the incubator and […] of a solution containing 20 μM of N-(Ac-DEVD)-N′-ethoxycarbonyl-R110 fluorogenic substrate (SEQ ID NO:1) (Cytovia, Inc.; U.S. Pat. No. 6,335,429), 20% sucrose (Sigma), 20 mM DTT (Sigma), 200 mM NaCl (Sigma), 40 mM Na PIPES buffer pH 7.2 (Sigma), and 500 μg/mL lysolecithin (Calbiochem) was added. The samples were mixed by agitation and incubated at room temperature. Using a fluorescent plate reader (Model 1420 Wallac Instruments), an initial reading (T=0) was made approximately 1-2 min after addition of the substrate solution, employing excitation at 485 nm and emission at 530 nm, to determine the background fluorescence of the control sample. After approximately 3 h of incubation, the samples were read for fluorescence as above (T=3 h).
(§2) The relative Fluorescence Unit values (RFU) were used to calculate the sample readings as follows: RFU(T=3h)−Control RFU(T=0)=Net RFU(T=3h)
(§3) The activity of caspase cascade activation was determined by the ratio of the net RFU value for N,N′-bis-(3-trifluoromethyl-phenyl)-2-(4-isopropyl-benzylidene)-malonamide to that of control samples. The EC50 (nM) was determined by a sigmoidal dose-response calculation (Prism 2.0, GraphPad Software Inc.).

T-47D [1] = test: Caspase cascade activation (Ac-DEVD-R110 fluorogenic substrate) in T-47D cells; format: cell-based, Human; conditions: 24 h incubation; for Caspase Activity Ratio: ratio of net RFU to that of control samples; for EC50: 0.16 to 10 μM final, read-out: Caspase potency EC50
Method: as §1, §2, §3

T-47D [2] = test: Inhibition of cell proliferation (GI50, CellTiter 96 AQueous One) in T-47D cells; format: cell-based; conditions: Homo sapiens, T47D, 48 h incubation, read-out: GI50 (dose for 50% inhibition of cell proliferation)
Method: (§4) T-47D and DLD-1 cells were grown and harvested as in Example 105. An aliquot of 90 μL of cells (2.2×10^4 cells/mL) was added to a well of a 96-well microtiter plate containing 10 μl of a 10% DMSO in RPMI-1640 media solution containing 1 nM to 100 μM of N,N′-bis-(3-trifluoromethyl-phenyl)-2-(4-isopropyl-benzylidene)-malonamide (0.1 nM to 10 μM final). An aliquot of 90 μL of cells was added to a well of a 96-well microtiter plate containing 10 μL of a 10% DMSO in RPMI-1640 media solution without compound as the control sample for maximal cell proliferation (AMax). The samples were mixed by agitation and then incubated at 37° C. for 48 h in a 5% CO2-95% humidity incubator. After incubation, the samples were removed from the incubator and 20 μL of CellTiter 96 AQUEOUS One Solution Cell Proliferation™ reagent (Promega) was added. The samples were mixed by agitation and incubated at 37° C. for 2-4 h in a 5% CO2-95% humidity incubator. Using an absorbance plate reader (Model 1420 Wallac Instruments), an initial reading (T=0) was made approximately 1-2 min after addition of the solution, employing absorbance at 490 nm. This determines the possible background absorbance of the test compounds. No absorbance for N,N′-bis-(3-trifluoromethyl-phenyl)-2-(4-isopropyl-benzylidene)-malonamide was found at 490 nm. After the 2-4 h incubation, the samples were read for absorbance as above (ATest).
(§5) Baseline for GI50 (dose for 50% inhibition of cell proliferation) of initial cell numbers were determined by adding an aliquot of 90 μL of cells or 90 μL of media, respectively, to wells of a 96-well microtiter plate containing 10 μL of a 10% DMSO in RPMI-1640 media solution. The samples were mixed by agitation and then incubated at 37° C. for 0.5 h in a 5% CO2-95% humidity incubator. After incubation, the samples were removed from the incubator and 20 μL of CellTiter 96 AQUEOUS One Solution Cell Proliferation™ reagent (Promega) was added. The samples were mixed by agitation and incubated at 37° C. for 2-4 h in a 5% CO2-95% humidity incubator. Absorbance was read as above, (AStart) defining absorbance for initial cell number used as baseline in GI50 determinations.
(§6) GI50 (dose for 50% inhibition of cell proliferation) is the concentration where [(ATest−AStart)/(AMax−AStart)]=0.5.

DLD-1 = test: Inhibition of cell proliferation (GI50, CellTiter 96 AQueous One) in DLD-1 cells; format: cell-based; conditions: Homo sapiens, 48 h incubation, read-out: GI50 (dose for 50% inhibition of cell proliferation)
Method: as §4, §5, §6

Structure (SMILES)	Caspase Activity Ratio (ZR-75-1)	EC50 (ZR-75-1; Homo sapiens)	Caspase Activity Ratio (T-47D [1])	EC50 (T-47D [1]; Homo sapiens, T47D)	GI50 (T-47D [2])	GI50 (DLD-1)	EC50 (ZR-75-1)	EC50 (T-47D [1])
COc1cccc(NC(=O)C(=Cc2ccc(C(F)(F)F)cc2)C(=O)Nc2cccc(OC)c2)c1 [Example 1, N,N′-Bis-(3-methoxy-phenyl)-2-(4-trifluoromethyl-benzylidene)-malonamide]	14	5.5 µM	28	2.85 µM				
O=C(Nc1cccc(C(F)(F)F)c1)C(=Cc1ccc(Cl)cc1Cl)C(=O)Nc1cccc(C(F)(F)F)c1 [Example 2, N,N′-Bis-(3-trifluoromethyl-phenyl)-2-(2,4-dichloro-benzylidene)-malonamide]	18	0.906 µM	16	0.647 µM	0.15 µM	0.2 µM		
O=C(Nc1cccc(C(F)(F)F)c1)C(=Cc1ccco1)C(=O)Nc1cccc(C(F)(F)F)c1 [Example 4, N,N′-Bis-(3-trifluoromethyl-phenyl)-2-furan-2-yl-methylene-malonamide]	6		28				5.6 µM	5.75 µM
Cc1ccc(C=C(C(=O)Nc2cccc(C(F)(F)F)c2)C(=O)Nc2cccc(C(F)(F)F)c2)c(C)c1 [Example 5, N,N′-Bis-(3-trifluoromethyl-phenyl)-2-(2,4-dimethyl-benzylidene)-malonamide]	26	5.4 µM	30	1.9 µM				
COc1ccc(C=C(C(=O)Nc2cccc(C(F)(F)F)c2)C(=O)Nc2cccc(C(F)(F)F)c2)c(OC)c1 [Example 6, N,N′-Bis-(3-trifluoromethyl-phenyl)-2-(2,4-dimethoxy-benzylidene)-malonamide]	1	> 10 µM	1	> 10 µM				
CC(C)c1ccc(CC(C(=O)Nc2cccc(C(F)(F)F)c2)C(=O)Nc2cccc(C(F)(F)F)c2)cc1 [Example 7, N,N′-Bis-(3-trifluoromethyl-phenyl)-2-(4-isopropyl-benzyl)-malonamide]	2.2	1.7 µM	1	> 10 µM				
O=C(Nc1cccc(C(F)(F)F)c1)C(=Cc1ccncc1)C(=O)Nc1cccc(C(F)(F)F)c1 [Example 8, N,N′-Bis-(3-trifluoromethyl-phenyl)-2-(4-pyridyl-methylene)-malonamide]	9.5	4.6 µM	17	4.05 µM	1.57 µM	1.53 µM		
CC(C)c1ccc(C=C(C(=O)Nc2ccccc2)C(=O)Nc2ccccc2)cc1 [Example 10, N,N′-Diphenyl-2-(4-isopropyl-benzylidene)-malonamide]	2.5	4.5 µM	16	5.79 µM				
CC(C)c1ccc(C=C(C(=O)Nc2ccccc2C(F)(F)F)C(=O)Nc2ccccc2C(F)(F)F)cc1 [Example 11, N,N′-Bis-(2-trifluoromethyl-phenyl)-2-(4-isopropyl-benzylidene)-malonamide]	1	> 10 µM	1	> 10 µM				
CC(C)c1ccc(C=C(C(=O)Nc2ccc(C(F)(F)F)cc2)C(=O)Nc2ccc(C(F)(F)F)cc2)cc1 [Example 12, N,N′-Bis-(4-trifluoromethyl-phenyl)-2-(4-isopropyl-benzylidene)-malonamide]	1	> 10 µM	1	> 10 µM				
COc1cccc(NC(=O)C(=Cc2ccc(C(C)C)cc2)C(=O)Nc2cccc(OC)c2)c1 [Example 13, N,N′-Bis-(3-methoxy-phenyl)-2-(4-isopropyl-benzylidene)-malonamide]	4.5	5.5 µM	21	2.89 µM				
CC(C)c1ccc(C=C(C(=O)Nc2cccc(Cl)c2)C(=O)Nc2cccc(Cl)c2)cc1 [Example 14, N,N′-Bis-(3-chloro-phenyl)-2-(4-isopropyl-benzylidene)-malonamide]	7.2	1.98 µM	21	0.738 µM	1.19 µM	1.23 µM		
O=C(Nc1cccc(C(F)(F)F)c1)C(=Cc1ccccc1)C(=O)Nc1cccc(C(F)(F)F)c1 [Example 15, N,N′-Bis-(3-trifluoromethyl-phenyl)-2-benzylidene-malonamide]	6	2.79 µM	16	1.38 µM	0.046 µM	1.34 µM		
O=C(Nc1cccc(C(F)(F)F)c1)C(=Cc1cnc[nH]1)C(=O)Nc1cccc(C(F)(F)F)c1 [Example 16, N,N′-Bis-(3-trifluoromethyl-phenyl)-2-(3H-imidazol-4-yl-methylene)-malonamide]					1.72 µM	1.68 µM		
CC(C)c1ccc(C=C(C(=O)Nc2cccc(O)c2)C(=O)Nc2cccc(O)c2)cc1 [Example 18, N,N′-Bis-(3-hydroxy-phenyl)-2-(4-isopropyl-benzylidene)-malonamide]					0.467 µM	1.65 µM		
CC(C)c1ccc(C=C(C(=O)Nc2cccc(Br)c2)C(=O)Nc2cccc(Br)c2)cc1 [Example 20, N,N′-Bis-(3-bromo-phenyl)-2-(4-isopropyl-benzylidene)-malonamide]					1.52 µM	1.66 µM		
CCc1ccc(C=C(C(=O)Nc2cccc(C(F)(F)F)c2)C(=O)Nc2cccc(C(F)(F)F)c2)cc1 [Example 26, N,N′-Bis-(3-trifluoromethyl-phenyl)-2-(4-ethyl-benzylidene)-malonamide]					0.666 µM	1.65 µM		
